{"source": "patent US5811456A", "about": "“Monoamine oxidase B inhibitors, processes for their preparation and use thereof” (priority 1994, dated 1998)", "key": {"[1]": {"assay": "MTT cytotoxicity test on adherent cells", "format": "cell-based", "details": "human, hela ohio cells; for CC50 at 24 h: read-out: LD50 (concentration for which 50% of the cells are killed); for MNTC at 24 h: read-out: MC100 (maximum concentration for which all the cells are alive)"}, "[2]": {"target": "T1, rat brain MAO B (Rattus norvegicus, UniProt P19643)", "T1 construct": "makes it possible to obtain a pellet enriched in mitochondria; from tissue; host or cells: Wistar rat brain without cerebellum, mitochondria-enriched pellet", "T1 sequence (P19643 1-520)": "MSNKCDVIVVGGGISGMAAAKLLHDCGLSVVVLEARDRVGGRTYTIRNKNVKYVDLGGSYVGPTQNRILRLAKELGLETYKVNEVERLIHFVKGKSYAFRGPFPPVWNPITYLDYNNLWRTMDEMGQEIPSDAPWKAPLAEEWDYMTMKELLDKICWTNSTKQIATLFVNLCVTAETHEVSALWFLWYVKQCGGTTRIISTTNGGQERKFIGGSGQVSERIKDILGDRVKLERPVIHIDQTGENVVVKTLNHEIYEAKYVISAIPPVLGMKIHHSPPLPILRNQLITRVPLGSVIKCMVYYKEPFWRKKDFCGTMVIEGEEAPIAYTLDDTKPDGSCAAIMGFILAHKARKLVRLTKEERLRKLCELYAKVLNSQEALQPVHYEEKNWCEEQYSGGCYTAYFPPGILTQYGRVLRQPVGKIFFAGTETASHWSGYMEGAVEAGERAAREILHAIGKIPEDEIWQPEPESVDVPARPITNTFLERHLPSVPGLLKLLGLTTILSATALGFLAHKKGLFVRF", "assay": "Inhibitory activity toward rat brain MAO B in vitro (14C-beta-phenylethylamine substrate)", "format": "biochemical"}, "[3]": {"assay": "Cytotoxicity test on the cells in suspension (Trypan blue)", "format": "cell-based", "details": "human, daudi cells; for CC50 at 24 h: read-out: LD50 (concentration for which 50% of the cells are killed); for MNTC at 24 h: read-out: MC100 (maximum concentration for which all the cells are alive)"}, "[4]": {"target": "T2, rat brain MAO A (Rattus norvegicus, UniProt P21396)", "T2 construct": "makes it possible to obtain a pellet enriched in mitochondria; from tissue; host or cells: Wistar rat brain without cerebellum, mitochondria-enriched pellet", "T2 sequence (P21396 1-526)": "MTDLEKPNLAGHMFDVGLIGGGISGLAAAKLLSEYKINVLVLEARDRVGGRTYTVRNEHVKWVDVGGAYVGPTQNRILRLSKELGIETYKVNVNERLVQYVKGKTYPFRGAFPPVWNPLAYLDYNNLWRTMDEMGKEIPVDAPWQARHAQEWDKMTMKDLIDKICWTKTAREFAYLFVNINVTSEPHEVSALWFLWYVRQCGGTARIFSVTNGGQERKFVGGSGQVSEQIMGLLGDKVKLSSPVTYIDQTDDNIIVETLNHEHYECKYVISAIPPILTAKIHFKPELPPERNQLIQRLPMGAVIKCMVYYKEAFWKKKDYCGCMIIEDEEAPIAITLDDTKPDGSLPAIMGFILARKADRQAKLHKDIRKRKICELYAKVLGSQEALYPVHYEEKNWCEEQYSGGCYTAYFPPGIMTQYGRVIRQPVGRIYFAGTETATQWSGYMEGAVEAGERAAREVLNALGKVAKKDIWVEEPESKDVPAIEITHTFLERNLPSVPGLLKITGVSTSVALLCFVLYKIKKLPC", "assay": "Inhibitory activity toward rat brain MAO A in vitro (14C-serotonin substrate)", "format": "biochemical"}, "[5]": {"target": "T3, monoamine oxidase B (Rattus norvegicus, UniProt P19643)", "T3 construct": "from tissue; host or cells: rat brain mitochondria (inferred from section 21.1; not restated in section 21.2)", "T3 sequence (P19643 1-520)": "T1 sequence (P19643 1-520)", "assay": "Reversibility of the inhibitory activity toward MAO B (residual activity before and after washing)", "format": "biochemical", "details": "mean of 4 assays"}, "[6]": {"details": "background; cited from earlier work"}, "[7]": {"test_system": "MAO A", "details": "background; cited from earlier work"}, "[8]": {"details": "ap: after preincubation (30 minutes, 37° C.), read-out: IC50 MAO B"}, "[9]": {"details": "wp: without preincubation, read-out: IC50 MAO B"}, "[10]": {"details": "ap: after preincubation (30 minutes, 37° C.)"}}, "note": "Where two headings read alike, the source gives them in different places."}
{"smiles": "CC(=O)N(CCC#N)N=Cc1ccc(OCc2ccc([N+](=O)[O-])cc2)cc1", "note": "[I-a2.2]", "values": [{"measurement": "CC50 at 24 h", "setting": "[1]", "result": 30, "unit": "µM"}, {"measurement": "MNTC at 24 h", "setting": "[1]", "result": 650, "unit": "nM"}, {"measurement": "IC50", "setting": "[2]; [8]", "result": 1.4, "unit": "µM"}, {"measurement": "IC50", "setting": "[2]; [9]", "result": 3, "unit": "µM"}, {"measurement": "CC50 at 24 h", "setting": "[3]", "result": 22, "unit": "µM"}, {"measurement": "MNTC at 24 h", "setting": "[3]", "result": 10, "unit": "µM"}]}
{"smiles": "CC(=O)N(CCC#N)N=Cc1ccc(OCCc2ccccc2)cc1", "note": "[I-a6, 4-(2-Phenylethozy)benzaldehyde acetyl(2-cyanoethyl)hydrazone]", "values": [{"measurement": "IC50", "setting": "[4]; [10]", "result": 6.8, "unit": "µM"}, {"measurement": "IC50", "setting": "[4]; wp: without preincubation", "result": 53, "unit": "µM"}, {"measurement": "IC50", "setting": "[2]; [8]", "result": 0.015, "unit": "µM"}, {"measurement": "IC50", "setting": "[2]; [9]", "result": 3, "unit": "µM"}]}
{"smiles": "CC(=O)N(CCC#N)N=Cc1ccc(OCc2ccc(Cl)cc2)cc1", "note": "[I-a2.3]", "values": [{"measurement": "MNTC at 24 h", "setting": "[1]", "result": 600, "unit": "nM"}, {"measurement": "IC50", "setting": "[2]; [8]", "result": 0.245, "unit": "µM"}, {"measurement": "IC50", "setting": "[2]; [9]", "result": 11.3, "unit": "µM"}, {"measurement": "CC50 at 24 h", "setting": "[3]", "result": 50, "unit": "µM"}, {"measurement": "MNTC at 24 h", "setting": "[3]", "result": 10, "unit": "µM"}]}
{"smiles": "CC(=O)N(CCO)N=Cc1ccc(OCc2ccccc2)cc1", "note": "[I-a4, 4-(Benzyloxy)benzaldehyde acetyl(2-hydroxyethyl)hydrazone]", "values": [{"measurement": "IC50", "setting": "[4]; [10]", "result": 50, "unit": "µM"}, {"measurement": "IC50", "setting": "[4]; wp: without preincubation", "result": 50, "unit": "µM"}, {"measurement": "CC50 at 24 h", "setting": "[1]", "result": 100, "unit": "µM"}, {"measurement": "MNTC at 24 h", "setting": "[1]", "result": 10000, "unit": "nM"}, {"measurement": "IC50", "setting": "[2]; [8]", "result": 0.0063, "unit": "µM"}, {"measurement": "IC50", "setting": "[2]; [9]", "result": 0.028, "unit": "µM"}, {"measurement": "CC50 at 24 h", "setting": "[3]", "result": 100, "unit": "µM"}, {"measurement": "MNTC at 24 h", "setting": "[3]", "result": 10, "unit": "µM"}]}
{"smiles": "CC(=O)N(CCC#N)N=Cc1ccc(OCc2ccccc2)cc1", "note": "[I-a2, 4-(Benzyloxy)benzaldehyde acetyl(2-cyanoethyl)hydrazone]", "values": [{"measurement": "Percentage of residual MAO activity", "setting": "[5]; after washing, 30 min", "result": 105, "unit": "%"}, {"measurement": "Percentage of residual MAO activity", "setting": "[5]; before washing, 30 min incubation at 37° C.", "result": 14, "unit": "%"}, {"measurement": "CC50 at 24 h", "setting": "[1]", "result": 100, "unit": "µM"}, {"measurement": "MNTC at 24 h", "setting": "[1]", "result": 10000, "unit": "nM"}, {"measurement": "IC50", "setting": "[2]; [8]", "result": 0.003, "unit": "µM"}, {"measurement": "IC50", "setting": "[2]; [9]", "result": 0.035, "unit": "µM"}, {"measurement": "CC50 at 24 h", "setting": "[3]", "result": 100, "unit": "µM"}, {"measurement": "MNTC at 24 h", "setting": "[3]", "result": 10, "unit": "µM"}]}
{"smiles": "CNC(=O)N(CCC#N)N=Cc1ccc(OCc2ccccc2)cc1", "note": "[I-c2, 4-(benzyloxy)benzaldehyde (2-cyanoethyl)(N-methylcarbamoyl)hydrazone]", "values": [{"measurement": "IC50", "setting": "[2]; [8]", "result": 2.5, "unit": "µM"}, {"measurement": "IC50", "setting": "[2]; [9]", "result": 1.8, "unit": "µM"}]}
{"smiles": "C#CCN(C)C(C)Cc1ccccc1", "note": "(stereo not shown) [Deprenyl]", "values": [{"measurement": "antidepressant effects (in words)", "setting": "[6]", "result": "lack antidepressant effects"}]}
{"smiles": "C#CCN(C)Cc1ccccc1", "note": "[pargyline]", "values": [{"measurement": "inhibition of MAO A (in words)", "setting": "[7]", "result": "inhibit MAO A"}, {"measurement": "antidepressant effects (in words)", "setting": "[6]", "result": "lack antidepressant effects"}]}
{"smiles": "CCOC(=O)N(CCO)N=Cc1ccc(OCc2ccccc2)cc1", "note": "[I-b4, 4-(Benzyloxy)benzaldehyde (2-hydroxyethyl)(ethoxycarbonyl)hydrazone]", "values": [{"measurement": "IC50", "setting": "[2]; [8]", "result": 10, "unit": "µM"}, {"measurement": "IC50", "setting": "[2]; [9]", "result": 35, "unit": "µM"}]}
{"smiles": "CNC(=O)N(CCC#N)N=Cc1ccccc1", "note": "[I-c1, Benzaldehyde (2-cyanoethyl)(N-methylcarbamoyl)hydrazone]", "values": [{"measurement": "IC50", "setting": "[2]; [8]", "result": 120, "unit": "µM"}, {"measurement": "IC50", "setting": "[2]; [9]", "result": 280, "unit": "µM"}]}
{"smiles": "CCOC(=O)N(CCC#N)N=Cc1ccc(OCc2ccccc2)cc1", "note": "[I-b2, 4-(Benzylozy)benzaldehyde (2-cyanoethyl)(ethoxycarbonyl)hydrazone]", "values": [{"measurement": "IC50", "setting": "[2]; [8]", "result": 6.3, "unit": "µM"}, {"measurement": "IC50", "setting": "[2]; [9]", "result": 22, "unit": "µM"}]}
{"smiles": "COc1ccc(COc2ccc(C=NN(CCC#N)C(C)=O)cc2)cc1", "note": "[I-a2.4]", "values": [{"measurement": "CC50 at 24 h", "setting": "[1]", "result": 40, "unit": "µM"}, {"measurement": "MNTC at 24 h", "setting": "[1]", "result": 2300, "unit": "nM"}, {"measurement": "IC50", "setting": "[2]; [8]", "result": 2.15, "unit": "µM"}, {"measurement": "IC50", "setting": "[2]; [9]", "result": 28, "unit": "µM"}, {"measurement": "CC50 at 24 h", "setting": "[3]", "result": 65, "unit": "µM"}, {"measurement": "MNTC at 24 h", "setting": "[3]", "result": 12.5, "unit": "µM"}]}
{"smiles": "C#CCN(N=Cc1ccc(OCc2ccccc2)cc1)C(C)=O", "note": "[I-a10, 4-(Benzyloxy)benzaldehyde acetylpropargylhydrazone]", "values": [{"measurement": "IC50", "setting": "[2]; [8]", "result": 0.36, "unit": "µM"}, {"measurement": "IC50", "setting": "[2]; [9]", "result": 4.1, "unit": "µM"}]}
{"smiles": "C#CCN(C)CCCOc1ccc(Cl)cc1Cl", "note": "[clorgyline]", "values": [{"measurement": "inhibition of MAO A (in words)", "setting": "[7]", "result": "inhibit MAO A"}]}
{"smiles": "CC(=O)N(CCC#N)N=Cc1ccc(OCc2ccc(C)cc2)cc1", "note": "[I-a2.1]", "values": [{"measurement": "IC50", "setting": "[2]; [8]", "result": 0.69, "unit": "µM"}, {"measurement": "IC50", "setting": "[2]; [9]", "result": 43, "unit": "µM"}]}
{"smiles": "CC(=O)N(CCC#N)N=Cc1ccc(OCc2ccc(Cl)cc2Cl)cc1", "note": "[I-a2.5, 4-[(2,4-Dichlorobenzyl)oxy]benzaldehyde acetyl(2-cyanoethyl)hydrazone]", "values": [{"measurement": "IC50", "setting": "[2]", "result": 0.38, "unit": "µM"}, {"measurement": "IC50 MAO B", "setting": "[2]; wp: without preincubation", "result": "precipitate"}]}
